Assay results published in patent US11149021B2, “N-(azaaryl)cyclolactam-1-carboxamide derivative, preparation method therefor, and use thereof” (Abbisko Therapeutics Co., Ltd., priority 2017, dated 2021).
Read-outs that look alike come from different tables or passages of the source.

How the values were obtained:
CSF-1R = target: T1, CSF-1R (Homo sapiens, UniProt P07333); test: CSF-1R in vitro biochemical kinase study (ADP-Glo assay)
T1 construct: 3.95 nM of CSF-1R, 500 μM of ATP

KIT = KIT (Homo sapiens, UniProt P10721); test: KIT in vitro biochemical kinase study (Caliper EZ Reader); conditions: * = average of multiple tests; read-out: Enzymatic experiment KIT IC50
Sequence of KIT (P10721 26-976): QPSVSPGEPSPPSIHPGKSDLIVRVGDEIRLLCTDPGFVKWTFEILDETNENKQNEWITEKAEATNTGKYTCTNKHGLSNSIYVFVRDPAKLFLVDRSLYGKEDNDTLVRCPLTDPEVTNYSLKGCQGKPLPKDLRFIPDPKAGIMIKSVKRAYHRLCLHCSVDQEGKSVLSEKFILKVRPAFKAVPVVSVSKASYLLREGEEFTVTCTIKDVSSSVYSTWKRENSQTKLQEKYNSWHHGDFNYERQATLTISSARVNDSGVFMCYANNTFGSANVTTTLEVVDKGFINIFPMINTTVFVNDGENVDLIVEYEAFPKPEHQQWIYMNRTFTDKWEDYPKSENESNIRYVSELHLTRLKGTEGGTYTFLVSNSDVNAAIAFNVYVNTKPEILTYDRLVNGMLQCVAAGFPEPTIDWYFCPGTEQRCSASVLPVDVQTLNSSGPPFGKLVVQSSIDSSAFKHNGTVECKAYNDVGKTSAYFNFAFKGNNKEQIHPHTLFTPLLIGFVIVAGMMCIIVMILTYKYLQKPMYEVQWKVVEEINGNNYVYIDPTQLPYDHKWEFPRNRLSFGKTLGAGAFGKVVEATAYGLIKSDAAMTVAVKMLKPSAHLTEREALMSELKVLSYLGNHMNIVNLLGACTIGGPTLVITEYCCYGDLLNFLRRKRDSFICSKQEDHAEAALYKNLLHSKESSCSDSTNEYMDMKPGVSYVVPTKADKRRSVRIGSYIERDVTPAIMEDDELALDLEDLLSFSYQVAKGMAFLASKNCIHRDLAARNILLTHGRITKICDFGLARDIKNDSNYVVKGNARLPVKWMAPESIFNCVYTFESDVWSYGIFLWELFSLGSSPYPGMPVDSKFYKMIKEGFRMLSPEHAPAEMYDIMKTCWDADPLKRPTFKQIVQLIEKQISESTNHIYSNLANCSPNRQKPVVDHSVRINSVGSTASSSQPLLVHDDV
Protocol: (§1) 8. the compound IC50 value was measured by using a plate reader (Tecan, M1000) and a four-parameter curve was generated in Graphpad Prism. The enzymatic activities of compounds in the specific embodiments are shown in Table 1. • B. KIT/PDGFRA in vitro biochemical kinase study • 1. Preparation of 1-fold kinase buffer and stop solution • 1.1. 1-fold kinase buffer: 50 mM HEPES, pH 7.5, 0.0015% Brij-35. • 1.2 stop solution: 100 mM HEPES, pH 7.5, 0.015% Brij-35, 0.2% Coating Reagent #3, 50 mM EDTA • 2 Preparation of compound solution • 2.1 Dilution of compound solution • 1) The final concentration of the compound solution was 40 μM, and the concentration of the prepared stock solution was 50 times of the final concentration, i.e., 2 mM. • 2) 80 μL of 100% DMSO was added to the second well of a 96-well plate, and then 20 μL of 10 mM compound solution was added to obtain 2 mM compound solution. 60 μL of 100% DMSO was added to other wells. 20 μL solution was taken from the second well and added to the third well, which was diluted by 4 times. This serial 4-time dilution was conducted in sequence for the total of 10 concentration. • 2.2 5-fold compound solution transferred to a reaction plate • 1) 10 μL solution was taken from each well of the above 96-well plate and added to another 96-well plate, and 90 µl of kinase buffer was added in each well of new plate. • 2) 5 μL solution was taken from the above 96-well plate and added to a 384-well reaction plate. • 2.3 Kinase reaction • 1) KIT/PDGFRA kinase was added to the 1-fold kinase buffer solution to obtain a 2.5-fold kinase solution. • 2) FAM-labeled polypeptide and ATP were added to the 1-fold kinase buffer solution to obtain a 2.5-fold substrate solution. • 3) 10 μL of 2.5-fold kinase solution was added to the 384-well reaction plate, which already contained 5 μL of 5-fold compound in 10% DMSO. […] Percent inhibition=(max-conversion)/(max-min)×100
(§2) 3) The IC50 value was fit with XLFit excel add-in version 5.4.0,8: Fitting formula: Y=Bottom+(Top-Bottom)/(1+(IC50/X)^HillSlope).
(§3) CSF-1R cell proliferation study

PDGFRA = PDGFRA (Homo sapiens, UniProt P16234); test: PDGFRA in vitro biochemical kinase study (Caliper EZ Reader); conditions: * = average of multiple tests; read-out: Enzymatic experiment PDGFRA IC50
Sequence of PDGFRA (P16234 24-1089): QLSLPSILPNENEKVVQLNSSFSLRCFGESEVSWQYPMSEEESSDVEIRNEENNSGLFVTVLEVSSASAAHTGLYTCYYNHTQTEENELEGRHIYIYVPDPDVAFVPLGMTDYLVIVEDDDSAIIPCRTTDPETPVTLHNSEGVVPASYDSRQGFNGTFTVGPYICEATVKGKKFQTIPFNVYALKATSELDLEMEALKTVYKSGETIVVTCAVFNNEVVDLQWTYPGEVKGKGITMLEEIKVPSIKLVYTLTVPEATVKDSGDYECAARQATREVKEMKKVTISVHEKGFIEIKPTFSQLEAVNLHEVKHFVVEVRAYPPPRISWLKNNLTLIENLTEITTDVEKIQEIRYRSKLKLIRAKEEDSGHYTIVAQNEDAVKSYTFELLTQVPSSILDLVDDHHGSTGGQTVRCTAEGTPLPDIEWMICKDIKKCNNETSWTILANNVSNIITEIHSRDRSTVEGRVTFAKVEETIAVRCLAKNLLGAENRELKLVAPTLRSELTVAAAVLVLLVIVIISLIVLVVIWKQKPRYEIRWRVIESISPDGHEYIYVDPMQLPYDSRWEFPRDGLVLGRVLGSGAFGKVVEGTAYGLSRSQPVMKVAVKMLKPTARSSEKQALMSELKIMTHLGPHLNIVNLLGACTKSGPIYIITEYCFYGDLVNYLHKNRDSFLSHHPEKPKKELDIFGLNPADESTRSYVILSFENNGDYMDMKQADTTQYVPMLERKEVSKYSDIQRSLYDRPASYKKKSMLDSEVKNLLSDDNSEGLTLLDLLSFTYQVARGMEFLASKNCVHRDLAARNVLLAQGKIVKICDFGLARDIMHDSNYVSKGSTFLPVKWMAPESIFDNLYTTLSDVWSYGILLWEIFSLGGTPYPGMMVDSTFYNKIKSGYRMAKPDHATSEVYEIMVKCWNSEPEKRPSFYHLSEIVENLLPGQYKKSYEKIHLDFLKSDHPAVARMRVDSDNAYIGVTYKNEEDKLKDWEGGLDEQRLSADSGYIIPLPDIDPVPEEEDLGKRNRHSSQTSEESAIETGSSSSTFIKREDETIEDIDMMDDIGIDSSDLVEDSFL
Protocol: as §1, §2, §3

[1] = test system: M-NFS-60 mouse myeloid leukemia lymphocytes; test: CSF-1R cell proliferation study (Cell Titer Glo); assay type: cell-based; conditions: Lymphocyte, 72 h;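 also: M-CSF-driven proliferation, viable cells quantified as ATP by luminescence, compounds tested as 3-fold serial dilutions, values from four-parameter curve fits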
Protocol: Functional effects of compounds on cell proliferation were evaluated by using Cell Titer Glo (CTG) study in the present invention. […] Since ATP is an index for viable cell metabolism, CTG (Promega, #G7573) reagent is a homogeneous detection method for detecting the number of viable cells in the culture by quantifying ATP. Therefore, compound-mediated inhibition for cell proliferation/survival was evaluated by quantifying ATP content in cells, and the specific experimental process was as follows:
3. 10 μL of culture medium containing M-CSF with 10-fold of the final concentration was then added to each well;
4. dosage effect was evaluated by testing the 3-fold serial dilutions of the compound;
5. after the cells were incubated for 3 days at 37° C. and 5% CO2, the inhibition on cell survival was quantified after 50 μL of CTG was added and the luminescence assay was performed;
6. the compound concentration leading to half maximal inhibitory (IC50) and the compound concentration leading to absolute half maximal inhibitory (Absolute IC50) was measured by a plate reader (M1000, Tecan) and a four-parameter curve fit in Graphpad Prism 7.

[2] = test system: M-07e human cytomegalic leukemia cells; test: CSF-1R-related cell proliferation experiment, KIT (Cell Titer Glo); assay type: cell-based; conditions: 72 h, read-out: Cytological experiment KIT IC50 (nM)
Protocol: (§4) Functional effects of compounds on the proliferation of several cell lines were evaluated by Cell Titer Glo (CTG) studies in the present invention, and effects of the compounds on the proliferation of different cells were evaluated to determine the selectivity of the compounds. […] No. CBP60115) were cultured in an incubator under conditions of RPM11640 (Gibco, cat. […] No. CBP60522) were cultured in an incubator under conditions of IMDM (Invitrogen, cat. […] Since ATP is an index for viable cell metabolism, CTG (Promega, #G7573) reagent is a homogeneous detection method for detecting the number of viable cells in the culture by quantifying ATP. Therefore, compound-mediated inhibition for cell proliferation/survival was evaluated by quantifying ATP content in cells, and the specific experimental process was as follows.

[3] = test system: MV-4-11 human acute monocytic leukemia cells; test: CSF-1R-related cell proliferation experiment, FLT3 (Cell Titer Glo); assay type: cell-based; conditions: MV4-11, 72 h, read-out: Cytological experiment FLT3 IC50 (nM)
Protocol: as §4

[4] = test system: NCI-H1703 human non-small cell lung squamous carcinoma cells; test: CSF-1R-related cell proliferation experiment, PDGFRA (Cell Titer Glo); assay type: cell-based; conditions: NCI-H1703, 72 h, read-out: Cytological experiment PDGERA IC50 (nM)
Protocol: as §4

[5] = read-out: Cytological experiment CS1-1R Absolute IC50 (nM)
[6] = read-out: Cytological experiment CSF-1R IC50 (nM)

T1 sequence (P07333 20-972): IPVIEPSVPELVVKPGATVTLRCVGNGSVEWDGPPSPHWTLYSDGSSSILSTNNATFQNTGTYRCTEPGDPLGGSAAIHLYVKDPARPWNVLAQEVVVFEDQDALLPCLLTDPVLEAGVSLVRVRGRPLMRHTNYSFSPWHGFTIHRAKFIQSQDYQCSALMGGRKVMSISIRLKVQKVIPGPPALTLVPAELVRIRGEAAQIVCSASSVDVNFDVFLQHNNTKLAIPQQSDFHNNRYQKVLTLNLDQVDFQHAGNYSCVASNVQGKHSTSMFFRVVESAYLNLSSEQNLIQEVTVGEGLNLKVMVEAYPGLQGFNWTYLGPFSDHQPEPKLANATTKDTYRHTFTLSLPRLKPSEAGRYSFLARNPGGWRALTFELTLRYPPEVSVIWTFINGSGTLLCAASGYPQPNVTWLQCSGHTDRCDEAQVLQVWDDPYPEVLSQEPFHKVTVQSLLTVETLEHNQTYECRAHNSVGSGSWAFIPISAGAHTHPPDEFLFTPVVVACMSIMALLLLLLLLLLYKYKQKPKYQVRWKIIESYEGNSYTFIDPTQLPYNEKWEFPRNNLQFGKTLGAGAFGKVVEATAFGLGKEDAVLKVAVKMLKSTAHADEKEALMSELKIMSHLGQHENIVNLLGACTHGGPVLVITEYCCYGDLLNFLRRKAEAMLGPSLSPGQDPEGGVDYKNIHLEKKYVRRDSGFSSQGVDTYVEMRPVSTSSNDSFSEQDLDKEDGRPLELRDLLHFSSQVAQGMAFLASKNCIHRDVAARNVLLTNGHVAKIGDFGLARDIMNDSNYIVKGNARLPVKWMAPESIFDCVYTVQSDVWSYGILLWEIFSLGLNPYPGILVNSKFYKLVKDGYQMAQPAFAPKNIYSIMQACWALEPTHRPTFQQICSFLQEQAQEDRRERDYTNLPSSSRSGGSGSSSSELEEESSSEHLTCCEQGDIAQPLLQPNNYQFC

Compound | IC50 (CSF-1R) [nM] | IC50 (KIT) [nM] | IC50 (PDGFRA) [nM] | IC50 [1, 5] [nM] | IC50 [1, 6] [nM] | IC50 [2] [nM] | IC50 [3] [nM] | IC50 [4] [nM]
Cc1nc(NC(=O)N2CCC(C)(C)C2=O)ccc1Oc1ccnc(-c2cnn(C)c2)c1 [Example 1, 3,3-dimethyl-N-(6-methyl-5-((2-(1-methyl-1H-pyrazol-4-yl)pyridin-4-yl)oxy)pyridin-2-yl)-2-oxopyrrolidine-1-carboxamide] | 19.5 | 77 | 1400 | 24.1 | 25 | 1060 | 5560 | 2870
Cn1cc(-c2cc(Oc3ccc(NC(=O)N4CCC(C)(C)C4=O)nc3)ccn2)cn1 [Example 2, 3,3-dimethyl-N-(5-((2-(1-methyl-1H-pyrazol-4-yl)pyridin-4-yl)oxy)pyridin-2-yl)-2-oxopyrrolidine-1-carboxamide] | 14.4 | 59.8 | 435 | 23.1 | 26.3 | 158 | 6000 | 18000
CCn1cc(-c2cc(Oc3ccc(NC(=O)N4CCC(C)(C)C4=O)nc3C)ccn2)cn1 [Example 6, N-(5-((2-(1-ethyl-1H-pyrazol-4-yl)pyridin-4-yl)oxy)-6-methylpyridin-2-yl)-3,3-dimethyl-2-oxopyrrolidine-1-carboxamide] | 25.8 | 167 | 2450 | 36.6 | 42.9 | 1670 | 9000 | 6000
Cc1nc(NC(=O)N2CCC(C)(C)C2=O)ccc1Oc1ccnc(-c2cnn(CCO)c2)c1 [Example 10, N-(5-((2-(1-(2-hydroxyethyl)-1H-pyrazol-4-yl)pyridin-4-yl)oxy)-6-methylpyridin-2-yl)-3,3-dimethyl-2-oxopyrrolidine-1-carboxamide] | 56.3 | 476 | 13100 | 140 | 104 | 4900 | 18000 | 6000
[2H]C([2H])([2H])n1cc(-c2cc(Oc3ccc(NC(=O)N4CCC(C)(C)C4=O)nc3C)ccn2)cn1 [Example 11, 3,3-dimethyl-N-(6-methyl-5-((2-(1-(methyl-d3)-1H-pyrazol-4-yl)pyridin-4-yl)oxy)pyridin-2-yl)-2-oxopyrrolidine-1-carboxamide] | 21.4 | – | – | 35.5 | 43.5 | > 1120 | > 6000 | > 2000
Cc1nc(NC(=O)N2CCC(C)(C)C2=O)ccc1Oc1ccnc(-c2cnn(C3CC3)c2)c1 [Example 15, N-(5-((2-(1-cyclopropyl-1H-pyrazol-4-yl)pyridin-4-yl)oxy)-6-methylpyridin-2-yl)-3,3-dimethyl-2-oxopyrrolidine-1-carboxamide] | 20.7 | – | – | 38.7 | 64.4 | > 1120 | > 6000 | > 6000
Cc1nc(NC(=O)N2CCC(C)(C)C2=O)ccc1Cc1ccnc(-c2cnn(C)c2)c1 [Example 21, 3,3-dimethyl-N-(6-methyl-5-((2-(1-methyl-1H-pyrazol-4-yl)pyridin-4-yl)methyl)pyridin-2-yl)-2-oxopyrrolidine-1-carboxamide] | 59.9 | – | – | 31.2 | 45.2 | 727 | > 2000 | > 6000
Cc1nc(NC(=O)N2CCCC(C)(C)C2=O)ccc1Oc1ccnc(-c2cnn(C)c2)c1 [Example 28, 3,3-dimethyl-N-(6-methyl-5-((2-(1-methyl-1H-pyrazol-4-yl)pyridin-4-yl)oxy)pyridin-2-yl)-2-oxopiperidine-1-carboxamide] | 24.2 | 8.48 | 107 | 31.9 | 35.7 | 940 | 10000 | 9530
Cc1nc(NC(=O)N2CCOC(C)(C)C2=O)ccc1Oc1ccnc(-c2cnn(C)c2)c1 [Example 29, 2,2-dimethyl-N-(6-methyl-5-((2-(1-methyl-1H-pyrazol-4-yl)pyridin-4-yl)oxy)pyridin-2-yl)-3-oxomorpholine-4-carboxamide] | 52.2 | 92.5 | 931 | 75.1 | 76.3 | > 2000 | > 18000 | > 6000
Cc1nc(NC(=O)N2CCC3(CCCC3)C2=O)ccc1Oc1ccnc(-c2cnn(C)c2)c1 [Example 31, N-(6-methyl-5-((2-(1-methyl-1H-pyrazol-4-yl)pyridin-4-yl)oxy)pyridin-2-yl)-1-oxo-2-azaspiro[4.4]nonane-2-carboxamide] | 8.45 | – | – | 19.4 | 19.2 | 190 | 2980 | 561
CCC1(C)CCN(C(=O)Nc2ccc(Oc3ccnc(-c4cnn(C)c4)c3)c(C)n2)C1=O (stereo not drawn) [Example 33, 3-ethyl-3-methyl-N-(6-methyl-5-((2-(1-methyl-1H-pyrazol-4-yl)pyridin-4-yl)oxy)pyridin-2-yl)-2-oxopyrrolidine-1-carboxamide] | 19.9 | – | – | 40.3 | 41.9 | 535 | > 6000 | > 6000
CCC1(CC)CCN(C(=O)Nc2ccc(Oc3ccnc(-c4cnn(C)c4)c3)c(C)n2)C1=O [Example 34, 3,3-diethyl-N-(6-methyl-5-((2-(1-methyl-1H-pyrazol-4-yl)pyridin-4-yl)oxy)pyridin-2-yl)-2-oxopyrrolidine-1-carboxamide] | 51.7 | – | – | 21.5 | 21.3 | 667 | > 2000 | 1330
Cc1nc(NC(=O)N2CCC(C)(O)C2=O)ccc1Oc1ccnc(-c2cnn(C)c2)c1 (stereo not drawn) [Example 41, 3-hydroxy-3-methyl-N-(6-methyl-5-((2-(1-methyl-1H-pyrazol-4-yl)pyridin-4-yl)oxy)pyridin-2-yl)-2-oxopyrrolidine-1-carboxamide] | 445 | – | – | > 2000 | > 2000 | > 18000 | > 18000 | > 18000
